Experimental data as given in ChEMBL document CHEMBL1134995, “Enhancement of pharmacokinetic properties and in vivo efficacy of benzylidene ketal M(2) muscarinic receptor antagonists via benzamide modification” (Bioorg Med Chem Lett, 2002).
Active and inactive are the calls of the source. No cut-off for these calls is given here.

What was measured:
Rattus norvegicus [1] = experiment: Compound was tested for activity in rat passive avoidance response (PAR) experiment, pretreatment time 1 hr with oral dose ranging from 0.001 to 0.1 mg/kg; Active; assay type: functional, organism-based
[2] = Oral bioavailability in rats was determined; High; assay type: ADME, organism-based; conditions: rat, in vivo
Rattus norvegicus [3] = experiment: Effect of compound on heart rate in rats at 1 mg/kg was determined; Not effected; assay type: functional, organism-based; parameters: dose 1 mg/kg
[4] = target: T1, Muscarinic acetylcholine receptor M2 (Rattus norvegicus, UniProt P10980); experiment: Binding affinity towards Muscarinic acetylcholine receptor M2
T1 sequence (P10980 whole entry): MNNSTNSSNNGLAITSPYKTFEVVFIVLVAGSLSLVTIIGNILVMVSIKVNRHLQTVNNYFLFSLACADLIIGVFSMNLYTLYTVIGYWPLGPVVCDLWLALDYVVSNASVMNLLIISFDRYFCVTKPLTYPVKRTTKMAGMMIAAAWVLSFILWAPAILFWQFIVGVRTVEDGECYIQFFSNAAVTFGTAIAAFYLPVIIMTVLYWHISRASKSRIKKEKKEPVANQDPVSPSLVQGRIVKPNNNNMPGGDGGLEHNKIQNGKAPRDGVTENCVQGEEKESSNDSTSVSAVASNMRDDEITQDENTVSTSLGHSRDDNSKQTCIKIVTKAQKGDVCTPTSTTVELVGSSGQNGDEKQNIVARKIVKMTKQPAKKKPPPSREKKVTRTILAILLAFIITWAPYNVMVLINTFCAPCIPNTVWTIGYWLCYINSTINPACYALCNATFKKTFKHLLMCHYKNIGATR

[5] = Area under curve was determined
Rattus norvegicus [6] = experiment: Effect of compound on heart rate in rats at 3 and 10 mg/kg was determined; Increase; assay type: functional, organism-based; parameters: dose 10 mg/kg
Rattus norvegicus [7] = species: Rattus norvegicus; experiment: Efficacy was tested in a rat microdialysis assay where ACh release levels were measured; assay type: functional
[8] = Oral bioavailability in cynomolgus monkeys was determined; Acceptable; assay type: ADME, organism-based, Macaca fascicularis; conditions: cynomolgus monkey, in vivo
[9] = target: Muscarinic receptor M1 and M2 (Rattus norvegicus) (UniProt P08482+P10980); experiment: Ratio of binding affinity of muscarinic M1 receptor to muscarinic M2 receptor; assay type: protein assay
Chain of Muscarinic receptor M1 and M2 (Rattus norvegicus) (P08482 whole entry, looked up, one chain of several): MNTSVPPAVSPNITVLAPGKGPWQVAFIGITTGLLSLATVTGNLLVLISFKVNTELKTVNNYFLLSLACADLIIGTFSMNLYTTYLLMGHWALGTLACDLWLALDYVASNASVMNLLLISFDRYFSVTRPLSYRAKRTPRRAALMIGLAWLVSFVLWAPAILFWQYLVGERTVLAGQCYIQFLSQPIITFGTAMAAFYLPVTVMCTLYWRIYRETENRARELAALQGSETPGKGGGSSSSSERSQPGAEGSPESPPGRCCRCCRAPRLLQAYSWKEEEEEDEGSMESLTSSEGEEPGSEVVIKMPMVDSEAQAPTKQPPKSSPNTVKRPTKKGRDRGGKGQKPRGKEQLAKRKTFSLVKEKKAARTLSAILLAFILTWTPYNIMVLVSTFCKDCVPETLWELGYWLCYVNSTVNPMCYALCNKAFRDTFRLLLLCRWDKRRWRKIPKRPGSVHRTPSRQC

[10] = target: Muscarinic receptor M2 and M3 (Rattus norvegicus) (UniProt P08483+P10980); experiment: Ratio of binding affinity for muscarinic M3 receptor to muscarinic M2 receptor; assay type: protein assay
Chain of Muscarinic receptor M2 and M3 (Rattus norvegicus) (P08483 whole entry, looked up, one chain of several): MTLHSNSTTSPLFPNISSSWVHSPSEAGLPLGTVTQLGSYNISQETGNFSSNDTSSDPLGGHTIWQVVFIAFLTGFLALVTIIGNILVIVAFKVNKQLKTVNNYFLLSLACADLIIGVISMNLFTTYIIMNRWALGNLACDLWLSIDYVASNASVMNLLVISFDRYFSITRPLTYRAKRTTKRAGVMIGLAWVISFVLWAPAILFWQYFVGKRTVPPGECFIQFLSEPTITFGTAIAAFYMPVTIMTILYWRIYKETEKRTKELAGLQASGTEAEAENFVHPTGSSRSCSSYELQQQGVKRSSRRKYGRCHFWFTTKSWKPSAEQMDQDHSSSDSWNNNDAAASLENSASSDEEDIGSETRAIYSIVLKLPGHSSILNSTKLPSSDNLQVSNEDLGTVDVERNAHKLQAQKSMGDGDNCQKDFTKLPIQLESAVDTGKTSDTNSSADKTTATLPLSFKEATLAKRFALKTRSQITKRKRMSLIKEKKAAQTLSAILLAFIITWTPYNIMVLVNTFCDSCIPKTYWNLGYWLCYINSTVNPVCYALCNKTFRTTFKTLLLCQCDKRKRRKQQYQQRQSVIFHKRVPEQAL

Compound	Ki [4]	Ratio [9]	further results
COc1ccc(S(=O)(=O)c2ccc(C3(C4CCN(C5CCN(C(=O)c6ccccc6C)CC5)CC4)O[C@H](C)[C@@H](C)O3)cc2)cc1	18 nM	32	–
COc1ccc(S(=O)(=O)c2ccc(C3(C4CCN(C5CCN(C(=O)c6ccccc6Br)CC5)CC4)OCCO3)cc2)cc1	1.8 nM	–	–
COc1ccc(S(=O)(=O)c2ccc(C3(C4CCN(C5CCN(C(=O)c6cccc(N)c6)CC5)CC4)OCCO3)cc2)cc1	0.78 nM	–	–
COc1ccc(S(=O)(=O)c2ccc(C3(C4CCN(C5CCN(C(=O)c6ccccc6Cl)CC5)CC4)OCCO3)cc2)cc1	1.6 nM	–	–
COc1ccc(S(=O)(=O)c2ccc(C3(C4CCN(C5CCN(C(=O)c6ccccc6C)CC5)CC4)SCCS3)cc2)cc1	0.86 nM	89	Ratio [10]: 15
COc1ccc([S+]([O-])c2ccc(C3(C4CCN(C5CCN(C(=O)c6ccccc6C)CC5)CC4)OCCO3)cc2)cc1 (configuration not stated)	2.5 nM	146	Ratio [10]: 35
COc1ccc([S+]([O-])c2ccc(C3(C4CCN(C5CCN(C(=O)c6ccccc6C)CC5)CC4)O[C@H](C)[C@@H](C)O3)cc2)cc1 (some centres not stated)	51 nM	14	–
COc1ccc(S(=O)(=O)c2ccc(C3(C4CCN(C5CCN(C(=O)c6ccccc6N)CC5)CC4)OCCO3)cc2)cc1	1.5 nM	–	–
COc1ccc(S(=O)(=O)c2ccc(C3(C4CCN(C5CCN(C(=O)c6cccc(Cl)c6C)CC5)CC4)OCCO3)cc2)cc1	0.72 nM	42	–
COc1ccc(S(=O)(=O)c2ccc(C3(C4CCN(C5CCN(C(=O)c6ccccc6C(F)(F)F)CC5)CC4)OCCO3)cc2)cc1	1 nM	–	–
COc1ccc(S(=O)(=O)c2ccc(C3(C4CCN(C5CCN(C(=O)c6ccccc6F)CC5)CC4)OCCO3)cc2)cc1	4.8 nM	49	Ratio [10]: 8
CNc1ccccc1C(=O)N1CCC(N2CCC(C3(c4ccc(S(=O)(=O)c5ccc(OC)cc5)cc4)OCCO3)CC2)CC1	0.9 nM	–	–
COc1ccc(S(=O)(=O)c2ccc(C3(C4CCN(C5CCN(C(=O)c6ccc(F)c7ccccc67)CC5)CC4)OCCO3)cc2)cc1	–	–	Acetylcholine release (Rattus norvegicus [7]): 180%
COc1ccc(S(=O)(=O)c2ccc(C3(C4CCN(C5CCN(C(=O)c6ccccc6OC)CC5)CC4)OCCO3)cc2)cc1	1.2 nM	–	–
COc1ccc(S(=O)(=O)c2ccc(C3(C4CCN(C5CCN(C(=O)c6c(Cl)cccc6Cl)CC5)CC4)OCCO3)cc2)cc1	2.3 nM	–	–
COc1ccc(S(=O)(=O)c2ccc(C3(C4CCN(C5CCN(C(=O)c6cc(F)ccc6N)CC5)CC4)OCCO3)cc2)cc1	0.68 nM	–	–
COc1ccc(S(=O)(=O)c2ccc(C3(C4CCN(C5CCN(C(=O)c6cccc(Cl)c6N)CC5)CC4)OCCO3)cc2)cc1	1.1 nM	–	–
COc1ccc(S(=O)(=O)c2ccc(C3(C4CCN(C5CCN(C(=O)c6cccc(C)c6C)CC5)CC4)OCCO3)cc2)cc1	1.4 nM	66	Ratio [10]: 40

Continued, in another order:

Ki [4]	Ratio [9]	Compound	further results
0.39 nM	–	COc1ccc(S(=O)(=O)c2ccc(C3(C4CCN(C5CCN(C(=O)c6cccc(C)c6N)CC5)CC4)OCCO3)cc2)cc1	Activity (Rattus norvegicus [1]): Active; bioavailability [2]: 80%; Heart rate (Rattus norvegicus [3]): inactive; AUC [5]: 1570 ng·h/mL; Heart rate (Rattus norvegicus [6]): Increased heart rate; Acetylcholine release (Rattus norvegicus [7]): 194%; bioavailability [8]: 15%
0.54 nM	–	COc1ccc(S(=O)(=O)c2ccc(C3(C4CCN(C5CCN(C(=O)c6ccccc6C)CC5)CC4)OCCO3)cc2)cc1	–
0.065 nM	28	Cc1ccccc1C(=O)N1CCC(N2CCC(C3(c4ccc(S(=O)(=O)c5ccc6c(c5)OCO6)cc4)OCCO3)CC2)CC1	Ratio [10]: 8
0.44 nM	–	COc1ccc(S(=O)(=O)c2ccc(C3(C4CCN(C5CCN(C(=O)c6ccc(F)cc6N)CC5)CC4)OCCO3)cc2)cc1	–
0.53 nM	–	COc1ccc(S(=O)(=O)c2ccc(C3(C4CCN(C5CCN(C(=O)c6cc(N)ccc6Cl)CC5)CC4)OCCO3)cc2)cc1	–
0.51 nM	–	COc1ccc(S(=O)(=O)c2ccc(C3(C4CCN(C5CCN(C(=O)c6cccc(F)c6N)CC5)CC4)OCCO3)cc2)cc1	–
0.53 nM	–	COc1ccc(S(=O)(=O)c2ccc(C3(C4CCN(C5CCN(C(=O)c6cccc(N)c6Cl)CC5)CC4)OCCO3)cc2)cc1	Acetylcholine release (Rattus norvegicus [7]): 135%
0.4 nM	–	COc1ccc(S(=O)(=O)c2ccc(C3(C4CCN(C5CCN(C(=O)c6cccc(N)c6C)CC5)CC4)OCCO3)cc2)cc1	–
